Here are results for 1 compound from ChEMBL document CHEMBL1671692, “Intravenous voriconazole after toxic oral administration” (Antimicrob Agents Chemother, 2010).

Holding throughout (type): organism-based
In series [1] the test system is Homo sapiens. The experiment in a line: Toxicity in sphenoid sinus human patient assessed as increase in liver enzyme level treatment increased upto 300 mg, iv QID for 8 weeks measured after 2 weeks of treatment discontinuation. The note with it: in vivo.
Series [2] deals with Homo sapiens. Description: Toxicity in sphenoid sinus human patient assessed as occurrence of extended interface dermatitis with vacuolar alteration of the basilar epidermis treatment increased upto 300 mg, po QID by biopsy hostopathological analysis. The note with it: in vivo.
In series [3] the test system is Homo sapiens. Description: Toxicity in sphenoid sinus human patient assessed as occurrence of epidermolysis bullosa acquisita treatment increased upto 300 mg, po QID by biopsy hostopathological analysis. To be noted: in vivo.
Series [4] relates to Homo sapiens. The experiment in a line: Toxicity in sphenoid sinus human patient assessed as occurrence of erythema multiforme treatment increased upto 300 mg, po QID by biopsy hostopathological analysis. The note with it: in vivo.
For series [5], the system named is Homo sapiens. The experiment in a line: Toxicity in sphenoid sinus human patient assessed as cutaneous reaction treatment increased upto 300 mg, iv QID for 8 weeks measured after 2 weeks of treatment discontinuation. The note with it: in vivo.
The test system of series [6] is Homo sapiens. The experiment in a line: Toxicity in sphenoid sinus human patient assessed as occurrence of pseudoporphyria treatment increased upto 300 mg, po QID by biopsy hostopathological analysis. The note with it: in vivo.
The subject of series [7] is Homo sapiens. The experiment in a line: Toxicity in sphenoid sinus human patient assessed as inflammatory infiltration treatment increased upto 300 mg, po QID by biopsy hostopathological analysis. The note with it: in vivo.
The test system of series [8] is Homo sapiens. Description: Toxicity in sphenoid sinus human patient assessed as desensitization to several types of adverse reactions at 500 mg, iv BID after 8 weeks. The note with it: in vivo, 1344 h.
For series [9], the system named is Homo sapiens. Description: Toxicity in sphenoid sinus human patient assessed as recurrence of the cutaneous reaction treatment increased upto 500 mg, iv BID for 8 weeks. To be noted: in vivo, 1344 h.
Series [10] deals with Homo sapiens. The experiment in a line: Toxicity in sphenoid sinus human patient assessed as increase in liver enzyme level treatment increased upto 300 mg, iv QID relative to control. To be noted: in vivo.
For series [11], the system named is Homo sapiens. The experiment in a line: Toxicity in sphenoid sinus human patient assessed as occurrence of cutaneous reaction with red striae treatment increased upto 300 mg, po QID by biopsy hostopathological analysis. To be noted: in vivo.
Series [12] relates to Homo sapiens. The experiment in a line: Toxicity in sphenoid sinus human patient assessed as mild elevations in liver enzyme level treatment increased upto 500 mg, iv BID for 8 weeks. The note with it: in vivo, 1344 h.
Series [13] has as its system Homo sapiens. The experiment in a line: Toxicity in sphenoid sinus human patient assessed as occurrence of superficial edema treatment increased upto 300 mg, po QID by biopsy hostopathological analysis. To be noted: in vivo.
For series [14], the system named is Homo sapiens. The experiment in a line: Toxicity in sphenoid sinus human patient assessed as apoptotic or necrotizing keratinocytes treatment increased upto 300 mg, po QID. The note with it: in vivo.

`C[C@@H](c1ncncc1F)[C@](O)(Cn1cncn1)c1ccc(F)cc1F` [VORICONAZOLE]: the Activity result in series [1] is given as “Non-toxic”; in [2], “Toxic”; in series [3], “Toxic”; in series [4], “Toxic”; in [5], “Non-toxic”; in series [6], “Toxic”. Further, the Activity result in series [7] is given as “Non-toxic”; in [8], “Non-toxic”; in series [9] it was “Non-toxic”; in [10], “Toxic”; in [11], “Toxic”; in series [12] it was “Toxic”. Also, the results for the Activity result in [13] and in series [14] were “Toxic” and “Non-toxic”, respectively.
